From ChEMBL document CHEMBL5344480 (RSC Med Chem, 2024)
pKi: −log10 of the molar value. Calls of active or inactive are those of the source. The rule behind the calls is not given here.

Columns and labels:
[1] = target: T1, 5-hydroxytryptamine receptor 2A (Homo sapiens, UniProt P28223); test: Inhibition of [125I](+/-)DOI binding to 5-HT2AR (unknown origin ) expressed in HEK293 cells at 10 uM by scintillation counter analysis; format: cell-based
[2] = target: T1, 5-hydroxytryptamine receptor 2A; test: Inhibition of [125I](+/-)DOI binding to 5-HT2AR (unknown origin ) expressed in HEK293 cells assessed as inhibition constant by scintillation counter analysis; format: cell-based
[3] = target: 5-hydroxytryptamine receptor 2B (Homo sapiens, UniProt P41595); test: Inhibition of [125I](+/-)DOI binding to 5-HT2BR (unknown origin ) expressed in CHO cells assessed as inhibition constant by scintillation counter analysis; format: cell-based
[4] = target: T1, 5-hydroxytryptamine receptor 2A; test: Inhibition of 5-HT2AR (unknown origin ) assessed as inhibition constant

T1 sequence (P28223 whole entry): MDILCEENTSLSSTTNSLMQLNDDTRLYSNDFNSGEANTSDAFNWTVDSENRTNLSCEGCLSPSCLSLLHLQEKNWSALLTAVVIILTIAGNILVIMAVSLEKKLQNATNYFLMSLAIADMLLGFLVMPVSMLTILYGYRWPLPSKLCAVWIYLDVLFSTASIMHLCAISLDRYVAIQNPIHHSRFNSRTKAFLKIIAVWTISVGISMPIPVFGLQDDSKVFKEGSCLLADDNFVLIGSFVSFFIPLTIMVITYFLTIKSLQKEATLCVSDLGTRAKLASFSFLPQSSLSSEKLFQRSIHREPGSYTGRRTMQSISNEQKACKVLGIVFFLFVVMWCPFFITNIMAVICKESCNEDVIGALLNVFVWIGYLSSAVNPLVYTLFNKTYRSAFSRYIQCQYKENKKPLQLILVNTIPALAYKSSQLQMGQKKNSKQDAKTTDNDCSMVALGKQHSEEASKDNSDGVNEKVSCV
Sequence of 5-hydroxytryptamine receptor 2B (P41595 whole entry): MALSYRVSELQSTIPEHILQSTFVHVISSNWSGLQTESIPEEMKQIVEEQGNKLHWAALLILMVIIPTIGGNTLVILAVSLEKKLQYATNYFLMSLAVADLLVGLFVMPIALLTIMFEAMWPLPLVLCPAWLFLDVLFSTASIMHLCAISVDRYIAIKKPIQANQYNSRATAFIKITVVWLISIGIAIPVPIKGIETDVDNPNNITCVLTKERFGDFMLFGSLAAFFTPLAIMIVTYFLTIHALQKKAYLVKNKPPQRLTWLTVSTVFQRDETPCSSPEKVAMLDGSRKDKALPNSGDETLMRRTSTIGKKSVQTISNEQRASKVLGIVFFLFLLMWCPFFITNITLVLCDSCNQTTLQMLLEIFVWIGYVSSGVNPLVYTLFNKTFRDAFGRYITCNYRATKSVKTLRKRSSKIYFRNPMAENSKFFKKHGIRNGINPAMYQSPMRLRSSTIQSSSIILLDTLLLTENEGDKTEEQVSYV

| Structure (SMILES) | inhibition [1] | pKi [2] | pKi [3] | pKi [4] |
| --- | --- | --- | --- | --- |
| CCOP(=O)(OCC)c1cccc2[nH]cc(CCN(C)C)c12 | Active |  |  |  |
| CCOP(=O)(OCC)c1ccc2[nH]cc(CCN(C)C)c2c1 | Active | 6.21 | 6.85 |  |
| CN(C)CCc1c[nH]c2cccc(OP(=O)(O)O)c12 [PSILOCYBIN] |  |  |  | < 5.00 |
